Reference: patent US8778982B2, “Synergistic microbicidal compositions” (Rohm and Haas Company, priority 2007, dated 2014)

What was measured:
Format in all cases: cell-based
Details in all cases: for SI / Qa: A = MIT; for Qa: A alone where Qb = 0
[1] = system: Candida albicans (C. albicans—ATCC 10231); experiment: Synergy test, microtiter plate high resolution MIC assay, PDB medium, yeast
Source text: (§1) One measure of synergism is the industrially accepted method described by Kull, F. C.; Eisman, P. C.; Sylwestrowicz, H. D. and Mayer, R. L., in Applied Microbiology 9:538-541 (1961), using the ratio determined by the formula: Qa/QA+Qb/QB=Synergy Index(“SI”) wherein: • QA=concentration of compound A (first component) in ppm, acting alone, which produced an end point (MIC of Compound A). • Qa=concentration of compound A in ppm, in the mixture, which produced an end point. • QB=concentration of compound B (second component) in ppm, acting alone, which produced an end point (MIC of Compound B). • Qb=concentration of compound B in ppm, in the mixture, which produced an end point.
(§2) When the sum of Qa/QA and Qb/QB is greater than one, antagonism is indicated. […] The lower the SI, the greater is the synergy shown by that particular mixture. The minimum inhibitory concentration (MIC) of a microbicide is the lowest concentration tested under a specific set of conditions that prevents the growth of the tested microorganisms.
(§3) Synergy tests were conducted using standard microtiter plate assays with media designed for optimal growth of the test microorganism. Minimal salt medium supplemented with 0.2% glucose and 0.1% yeast extract (M9GY medium) was used for testing bacteria; Potato Dextrose Broth (PDB medium) was used for testing yeast and mold. In this method, a wide range of combinations of microbicides and other personal care raw materials was tested by conducting high resolution MIC assays in the presence of various concentrations of CMIT/MIT, MIT, or BIT. High resolution MICs were determined by adding varying amounts of microbicide to one column of a microtitre plate and doing subsequent […] dilutions using an automated liquid handling system to obtain a series of endpoints ranging from 2 ppm to 10,000 ppm active ingredient.
(§4) The synergy of the combinations of the present invention was determined against a bacterium, Escherichia coli (E. coli—ATCC #8739), a yeast, Candida albicans (C. albicans—ATCC 10231), and a mold, Aspergillus niger (A. niger—ATCC 16404). The bacteria were used at a concentration of about 5×10^6 bacteria per mL and the yeast and mold at 5×10^5 fungi per mL. These microorganisms are representative of natural contaminants in many consumer and industrial applications. […] (yeast and mold) or 30° C. (bacteria).

[2] = system: Escherichia coli (E. coli—ATCC #8739); experiment: Synergy test, microtiter plate high resolution MIC assay, M9GY medium, bacterium
Source text: as §1, §2, §3, §4

[3] = system: Aspergillus niger (A. niger—ATCC 16404); experiment: Synergy test, microtiter plate high resolution MIC assay, PDB medium, mold
Source text: as §1, §2, §3, §4

[4] = C. albicans 10231 - PDB (1 day), B = Propylene glycol monolaurate
[5] = C. albicans 10231 - PDB (2 days), B = Glyceryl mono dicaprylate
[6] = C. albicans 10231 - PDB (6 days), B = Ethylhexylglycerin
[7] = C. albicans 10231 - PDB (6 days), B = Glyceryl caprate
[8] = C. albicans 10231 - PDB (6 days), B = Lauric arginate
[9] = C. albicans 10231 - PDB (6 days), B = Myristamidopropyl PG-dimonium chloride phosphate
[10] = C. albicans 10231 - PDB (6 days), B = Propylene glycol caprylate
[11] = E. coli 8739 - M9GY (1 day), B = Glyceryl caprate
[12] = E. coli 8739 - M9GY (1 day), B = Glyceryl mono dicaprylate
[13] = E. coli 8739 - M9GY (1 day), B = Lauric arginate
[14] = E. coli 8739 - M9GY (1 day), B = Myristamidopropyl PG-dimonium chloride phosphate
[15] = E. coli 8739 - M9GY (1 day), B = Propylene glycol caprylate
[16] = E. coli 8739 - M9GY (1 day), B = Propylene glycol monolaurate
[17] = E. coli 8739 - M9GY (6 days), B = Ethylhexylglycerin
[18] = A. niger 16404 - PDB (3 days), B = Myristamidopropyl PG-dimonium chloride phosphate
[19] = A. niger 16404 - PDB (3 days), B = Propylene glycol caprylate
[20] = A. niger 16404 - PDB (10 days), B = Ethylhexylglycerin
[21] = A. niger 16404 - PDB (10 days), B = Glyceryl caprate
[22] = A. niger 16404 - PDB (10 days), B = Glyceryl mono dicaprylate
[23] = A. niger 16404 - PDB (10 days), B = Lauric arginate
[24] = A. niger 16404 - PDB (10 days), B = Propylene glycol monolaurate

With `Cn1sccc1=O` [MIT, 2-methyl-4-isothiazolin-3-one] the “Synergy Index (SI) = Qa/QA+Qb/QB” value ([1]; C. albicans 10231, PDB, 6 days) was 1.00, the “MIC of the component acting alone (QA or QB)” value (from here on “MIC … (QA or QB)”) ([1]; C. albicans 10231, PDB, 6 days, 25° C.) was 200.00 ppm and the SI [1, 4] was 1.00. It also gave a Qa [1, 4] of 100.00 ppm, an SI [1, 5] of 1.00 and a Qa [1, 5] of 150.00 ppm. For the same compound, the SI [1, 6] was 1.00, the Qa [1, 6] was 200.00 ppm and the SI [1, 7] was 1.00. The Qa [1, 7] was 200.00 ppm, the SI [1, 8] was 1.00 and the Qa [1, 8] was 200.00 ppm. It also gave an SI [1, 9] of 1.00, a Qa [1, 9] of 200.00 ppm and an SI [1, 10] of 1.00. The Qa [1, 10] was 200.00 ppm, the MIC ([1]; Candida albicans, ATCC10231, 144 h, read-out: MIC of the component acting alone (QA or QB)) was 200 µg/mL and the “Synergy Index (SI) = Qa/QA+Qb/QB” value ([2]; E. coli 8739, M9GY, 1 day) was 1.00. The “MIC … (QA or QB)” value ([2]; E. coli 8739, M9GY, 1 day, 30° C.) was 30.00 ppm, the SI [2, 11] was 1.00 and the Qa [2, 11] was 30.00 ppm. For the same compound, the SI [2, 12] was 1.00, the Qa [2, 12] was 30.00 ppm and the SI [2, 13] was 1.00. It also gave a Qa [2, 13] of 30.00 ppm, an SI [2, 14] of 1.00 and a Qa [2, 14] of 30.00 ppm. The SI [2, 15] was 1.00, the Qa [2, 15] was 30.00 ppm and the SI [2, 16] was 1.00. The Qa [2, 16] was 30.00 ppm, the SI [2, 17] was 1.00 and the Qa [2, 17] was 40.00 ppm. For the same compound, the MIC ([2]; Escherichia coli, ATCC8739, 24 h, read-out: MIC of the component acting alone (QA or QB)) was 30 µg/mL, the “Synergy Index (SI) = Qa/QA+Qb/QB” value ([3]; A. niger 16404, PDB, 10 days) was 1.00 and the “MIC … (QA or QB)” value ([3]; A. niger 16404, PDB, 10 days, 25° C.) was 500.00 ppm. For the same compound, the SI [3, 18] was 1.00, the Qa [3, 18] was 400 ppm and the SI [3, 19] was 1.00. For the same compound, the Qa [3, 19] was 400 ppm, the SI [3, 20] was 1.00 and the Qa [3, 20] was 750 ppm. The SI [3, 21] was 1.00, the Qa [3, 21] was 500 ppm and the SI [3, 22] was 1.00. The Qa [3, 22] was 500 ppm, the SI [3, 23] was 1.00 and the Qa [3, 23] was 750 ppm. It also gave an SI [3, 24] of 1.00, a Qa [3, 24] of 750.00 ppm and an MIC ([3]; Aspergillus niger, ATCC16404, 240 h, read-out: MIC of the component acting alone (QA or QB)) of 500 µg/mL.
